{
  "source": "patent US7919101B2",
  "about": "(priority 2008, dated 2011)",
  "key": {"[1]": {"test_system": "HIV-1 RU570 (clade G, R5)", "assay": "Inhibition of infection by primary HIV-1 isolate RU570", "format": "cell-based", "experimental": "(§1) Inhibitory activity of fusion/entry inhibitors on infection by a primary HIV-1 isolate was determined as previously described (Jiang S et al. Antimicrob Agents Chemother 48:4349-4359, 2004). Peripheral blood mononuclear cells (PBMCs) were isolated from the blood of healthy donors by standard density gradient centrifugation using Histopaque-1077 (Sigma). The cells were plated in 75 cm^2 plastic flasks and incubated at 37° C. for 2 hrs. The nonadherent cells were collected and resuspended at 5×10^6 in 10 ml RPMI-1640 medium containing 10% FBS, 5 μg/ml PHA (phytohemagglutinin) and 100 U/ml IL-2 (Sigma), followed by incubation at 37° C. for 3 days. The PHA-stimulated cells were infected with a primary HIV-1 isolates at 0.01 MOI in the absence or presence of a compound at graded concentrations. Culture media were changed every 3 days. The supernatants were collected 7 days post-infection and tested for p24 antigen by ELISA as described above. The percent inhibition of p24 production and EC50 values were calculated as described above.\n(§2) 4. Synergy analysis. […] In all analyses, HIV fusion/entry inhibitors were assumed to act noncompetitively, which led to a more conservative estimate of synergy. CI values<1 and >1 indicate synergy and antagonism, respectively. Dose reductions were calculated as the compound concentrations required for inhibition of HIV-1 replication when the compound was used alone and in combination. The statistic analysis was performed by the One-Way Analysis of Variance (One-Way ANOVA) method using Origin 6.1 software."}, "[2]": {"test_system": "HIV-1 NL4-3(36G)V38E/N42S", "experimental": "(§3) 2. Inhibition of HIV infection as measured by luciferase assay. The inhibitory activity of fusion/entry inhibitors on HIV infection in TZM-bl cells was determined by using a luciferase assay (Wei X et al. Antimicrob. Agents Chemother. 46:1896-1905, 2002). Briefly, 50 μl of a compound at graded concentration in triplicate were incubated with an equal volume of an HIV-1 isolate at 0.01 multiplicity of infection (MOI) at 37° C. for 30 min, followed by addition of the mixture to 100 μl TZM-bl cells (1×10^5/ml) that were pre-cultured in a 96-well plate at 37° C. overnight. After further culture at 37° C. for 3 days, the cells were harvested and lyzed with 50 μl lysing reagent. The luciferase activity was analyzed using a luciferase kit (Promega Corp.) and a luminometer (Model: Ultra […], Tecan) according to the manufacture's instruction. The percent inhibition of cell fusion by a compound as well as EC50 and EC90 values were calculated using the software CalcuSyn.\n(§4) 3. Inhibition of HIV replication as measured by p24 antigen production. The inhibitory activity of fusion/entry inhibitors on HIV-1 infection as measured by p24 antigen production was determined as previously described (Zhao Q et al. AIDS Res Hum Retroviruses 18:989-997, 2002). In brief, 1×10^4 MT-2 cells were infected with an HIV-1 strain (100 TCID50) in 200 μl RPMI 1640 medium containing 10% FBS in the presence or absence of testing compounds at graded concentrations overnight. Then the culture supernatants were removed and fresh media containing no testing compounds were added. On the fourth day post-infection, 100 μl of culture supernatants were collected from each well, mixed with equal volumes of 5% Triton X-100 and assayed for p24 antigen, which was quantitated by ELISA. Briefly, wells of polystyrene plates were coated with HIV immunoglobulin (HIVIG, prepared from plasma of HIV-seropositive donors with high neutralizing titers against HIV-1IIIB), in 0.085 M carbonate-bicarbonate buffer (pH 9.6) at 4° C. overnight, followed by washes with washing buffer (0.01 M PBS containing 0.05% Tween-20) and blocking with PBS containing 1% dry fat-free milk. Virus lysates were added to the wells and incubated at 37° C. for 1 hr. […] Reactions were terminated by addition of 1N H2SO4. Absorbance at 450 nm was recorded in an ELISA reader (Ultra 384, TECAN). Recombinant protein p24, purchased from US Biological, was included for establishing standard dose response curves. Each sample was tested in triplicate. The percentage of inhibition of p24 production was calculated as previously described (Neurath A R et al. BMC Infect Dis 2:6, 2002).\nas §2"}, "HIV-1 NL4-3(36G)V38A": {"test_system": "HIV-1 NL4-3(36G)V38A", "experimental": "as §3, §4, §2"}, "[3]": {"test_system": "HIV-1 BaL (subtype B, R5)", "experimental": "as §3, §4, §2"}, "[4]": {"test_system": "HIV-1 IIIB (subtype B, X4)", "experimental": "as §3, §4, §2"}, "[5]": {"test_system": "HIV-1 NL4-3(36G)V38A/N42D", "experimental": "as §3, §4, §2"}, "[6]": {"test_system": "HIV-1 93IN101 (subtype C, R5)", "experimental": "as §1, §2"}, "HIV-1 NL4-3D36G": {"test_system": "HIV-1 NL4-3D36G", "assay": "Inhibition of infection by T-20-sensitive strain NL4-3D36G", "format": "cell-based", "details": "NL4-3D36G", "experimental": "as §3, §4, §2"}, "[7]": {"details": "in the blood; cited from earlier work"}, "[8]": {"details": "read-out: EC50 alone, peptide alone"}, "[9]": {"details": "read-out: EC50 in mixture, T-20+T-1249+T-1144 80:1:1"}, "[10]": {"details": "read-out: EC50 in mixture, T-20 combined with T-1144, ratios 80:1:1"}, "[11]": {"details": "read-out: EC50 in mixture, T-20 combined with T-1249, ratios 80:1:1"}},
  "note": "Read-outs that look alike come from different tables or passages of the source.",
  "data": [
    {"substance": "enfuvirtide", "values": [
      {"measurement": "EC50", "setting": "[1]; RU570 (G, R5) primary isolate, peptide alone, read-out: EC50 alone", "result": 38.4, "unit": "nM"},
      {"measurement": "Dose reduction", "setting": "[1]; RU570, T-20+T-1249+T-1144 4:1:1", "result": 8.47, "unit": "fold"},
      {"measurement": "EC50", "setting": "[1]; RU570, T-20+T-1249+T-1144 4:1:1, read-out: EC50 in mixture", "result": 4.54, "unit": "nM"},
      {"measurement": "Dose reduction", "setting": "[1]; RU570, T-20 combined with T-1144", "result": 7.41, "unit": "fold"},
      {"measurement": "EC50", "setting": "[1]; RU570, T-20 combined with T-1144, ratios 4:1:1, read-out: EC50 in mixture", "result": 5.19, "unit": "nM"},
      {"measurement": "EC50", "setting": "[1]; RU570, T-20 combined with T-1249, ratios 4:1:1, read-out: EC50 in mixture", "result": 5.98, "unit": "nM"},
      {"measurement": "Dose reduction", "setting": "[2]; T-20+T-1249+T-1144 3000:200:1", "result": 24.12, "unit": "fold"},
      {"measurement": "Dose reduction", "setting": "[2]; T-20 combined with T-1144", "result": 2.64, "unit": "fold"},
      {"measurement": "Dose reduction", "setting": "[2]; T-20 combined with T-1249", "result": 13.51, "unit": "fold"},
      {"measurement": "EC50", "setting": "[2]; [8]", "result": 9890, "unit": "nM"},
      {"measurement": "EC50", "setting": "[2]; read-out: EC50 in mixture, T-20+T-1249+T-1144 3000:200:1", "result": 410, "unit": "nM"},
      {"measurement": "EC50", "setting": "[2]; read-out: EC50 in mixture, T-20 combined with T-1144, ratios 3000:200:1", "result": 3750, "unit": "nM"},
      {"measurement": "EC50", "setting": "[2]; read-out: EC50 in mixture, T-20 combined with T-1249, ratios 3000:200:1", "result": 733, "unit": "nM"},
      {"measurement": "Dose reduction", "setting": "HIV-1 NL4-3(36G)V38A; T-20+T-1249+T-1144 80:1:1", "result": 37.76, "unit": "fold"},
      {"measurement": "Dose reduction", "setting": "HIV-1 NL4-3(36G)V38A; T-20 combined with T-1144", "result": 16.78, "unit": "fold"},
      {"measurement": "Dose reduction", "setting": "HIV-1 NL4-3(36G)V38A; T-20 combined with T-1249", "result": 23.03, "unit": "fold"},
      {"measurement": "EC50", "setting": "HIV-1 NL4-3(36G)V38A; [8]", "result": 313, "unit": "nM"},
      {"measurement": "EC50", "setting": "HIV-1 NL4-3(36G)V38A; [9]", "result": 8.29, "unit": "nM"},
      {"measurement": "EC50", "setting": "HIV-1 NL4-3(36G)V38A; [10]", "result": 18.6, "unit": "nM"},
      {"measurement": "EC50", "setting": "HIV-1 NL4-3(36G)V38A; [11]", "result": 13.6, "unit": "nM"},
      {"measurement": "Dose reduction", "setting": "[3]; Bal, T-20+T-1249+T-1144 2:1:1", "result": 280.67, "unit": "fold"},
      {"measurement": "Dose reduction", "setting": "[3]; Bal, T-20 combined with T-1144", "result": 20.05, "unit": "fold"},
      {"measurement": "Dose reduction", "setting": "[3]; Bal, T-20 combined with T-1249", "result": 11.53, "unit": "fold"},
      {"measurement": "EC50", "setting": "[3]; read-out: EC50 alone, Bal (B, R5), peptide alone", "result": 8.42, "unit": "nM"},
      {"measurement": "EC50", "setting": "[3]; read-out: EC50 in mixture, Bal, T-20+T-1249+T-1144 2:1:1", "result": 0.03, "unit": "nM"},
      {"measurement": "EC50", "setting": "[3]; read-out: EC50 in mixture, Bal, T-20 combined with T-1144, ratios 2:1:1", "result": 0.42, "unit": "nM"},
      {"measurement": "EC50", "setting": "[3]; read-out: EC50 in mixture, Bal, T-20 combined with T-1249, ratios 2:1:1", "result": 0.73, "unit": "nM"},
      {"measurement": "Dose reduction", "setting": "[4]; IIIB, T-20+T-1249+T-1144 16:4:1", "result": 71.04, "unit": "fold"},
      {"measurement": "Dose reduction", "setting": "[4]; IIIB, T-20 combined with T-1144", "result": 5.11, "unit": "fold"},
      {"measurement": "Dose reduction", "setting": "[4]; IIIB, T-20 combined with T-1249", "result": 3.32, "unit": "fold"},
      {"measurement": "EC50", "setting": "[4]; read-out: EC50 alone, IIIB (B, X4), peptide alone", "result": 50.4, "unit": "nM"},
      {"measurement": "EC50", "setting": "[4]; read-out: EC50 in mixture, IIIB, T-20+T-1249+T-1144 16:4:1", "result": 0.71, "unit": "nM"},
      {"measurement": "EC50", "setting": "[4]; read-out: EC50 in mixture, IIIB, T-20 combined with T-1144, ratios 16:4:1", "result": 9.88, "unit": "nM"},
      {"measurement": "EC50", "setting": "[4]; read-out: EC50 in mixture, IIIB, T-20 combined with T-1249, ratios 16:4:1", "result": 15.2, "unit": "nM"},
      {"measurement": "Dose reduction", "setting": "[5]; T-20+T-1249+T-1144 80:1:1", "result": 67.90, "unit": "fold"},
      {"measurement": "Dose reduction", "setting": "[5]; T-20 combined with T-1144", "result": 13.17, "unit": "fold"},
      {"measurement": "Dose reduction", "setting": "[5]; T-20 combined with T-1249", "result": 11.56, "unit": "fold"},
      {"measurement": "EC50", "setting": "[5]; [8]", "result": 2650, "unit": "nM"},
      {"measurement": "EC50", "setting": "[5]; [9]", "result": 39, "unit": "nM"},
      {"measurement": "EC50", "setting": "[5]; [10]", "result": 201, "unit": "nM"},
      {"measurement": "EC50", "setting": "[5]; [11]", "result": 229, "unit": "nM"},
      {"measurement": "Dose reduction", "setting": "[6]; 93IN101, T-20+T-1249+T-1144 4:1:1", "result": 15.70, "unit": "fold"},
      {"measurement": "Dose reduction", "setting": "[6]; 93IN101, T-20 combined with T-1144", "result": 9.30, "unit": "fold"},
      {"measurement": "Dose reduction", "setting": "[6]; 93IN101, T-20 combined with T-1249", "result": 10.90, "unit": "fold"},
      {"measurement": "EC50", "setting": "[6]; read-out: EC50 alone, 93IN101 (C, R5) primary isolate, peptide alone", "result": 39.9, "unit": "nM"},
      {"measurement": "EC50", "setting": "[6]; read-out: EC50 in mixture, 93IN101, T-20+T-1249+T-1144 4:1:1", "result": 2.54, "unit": "nM"},
      {"measurement": "EC50", "setting": "[6]; read-out: EC50 in mixture, 93IN101, T-20 combined with T-1144, ratios 4:1:1", "result": 4.29, "unit": "nM"},
      {"measurement": "EC50", "setting": "[6]; read-out: EC50 in mixture, 93IN101, T-20 combined with T-1249, ratios 4:1:1", "result": 3.66, "unit": "nM"},
      {"measurement": "Dose reduction", "setting": "HIV-1 NL4-3D36G; T-20+T-1249+T-1144 7:5:1", "result": 18.61, "unit": "fold"},
      {"measurement": "Dose reduction", "setting": "HIV-1 NL4-3D36G; T-20 combined with T-1144", "result": 15.53, "unit": "fold"},
      {"measurement": "Dose reduction", "setting": "HIV-1 NL4-3D36G; T-20 combined with T-1249", "result": 6.48, "unit": "fold"},
      {"measurement": "half-life in vivo", "setting": "[7]", "result": "about 2 hours"}
    ]}
  ]
}
